Measured values from US9351955B2, “Compounds and pharmaceutical compositions thereof for the treatment of cystic fibrosis” (Galapagos NV, priority 2013, dated 2016).
“And” between values parts separate entries of the source, which are not always exact repeats. Identical values can stand only once.

Experiments:
Assay type in all cases: cell-based
CFTR ΔF508 mutant [1] = target: T1, CFTR ΔF508 mutant (Homo sapiens, UniProt P13569, DEL508-508); experiment: YFP-halide influx assay for the CFTR-ΔF508 mutation (96 well, CFBE41o- cells); conditions: compounds of the invention, 96 well, forskolin 10.67 μM, read-out: EC50 measured by YFP-halide influx assay for the CFTR-ΔF508
T1 construct: expressed in transfected cells; host or cells: CFBE41o- (adenoviral transduction)
In short: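 CFBE41o- cells were adenovirally transduced with CFTR ΔF508 and the halide-sensitive YFP H148Q/I152L. They were then corrected either at 27 °C for 24 h or with a CFTR modulator for 24 h at 37 °C. After iodide injection, YFP quenching over 7 s was expressed as 1−F/F0, and EC50 was derived from the concentration–response plot.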

CFTR ΔF508 mutant [2] = target: T1, CFTR ΔF508 mutant; experiment: YFP-halide influx assay for the CFTR-ΔF508 mutation (384 well, CFBE41o- cells, FDSS/μCell); conditions: forskolin 10.67 μM, fluorescence after 36 seconds, read-out: EC50 measured by YFP-halide influx assay for the CFTR-ΔF508
In short: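 CFBE41o- cells were adenovirally transduced with ΔF508 CFTR and the YFP H148Q/I152L reporter. Cells were then held 24 h at 27 °C or treated 24 h at 37 °C with a CFTR modulator. Iodide-induced quench was recorded for 2 min, and EC50 was derived from 1−F/F0 at 36 s against compound concentration.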

CFTR-G1349D = target: T2, CFTR-G1349D (Homo sapiens, UniProt P13569, G1349D); experiment: YFP-halide influx assay for the CFTR-G1349D; conditions: CFTR-G1349D mutant; read-out: EC50 measured by YFP-halide influx assay for the CFTR-G1349D
T2 construct: expressed in transfected cells
In short: (§1)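 HEK293 cells reverse-transfected with mutant CFTR and halide-sensitive YFP H148Q/I152L/F47L reporter, then expressed 24 h at 37 °C, 5% CO2. Fluorescence quenching recorded for 7 s after I^− injection; response expressed as 1−F/F0, with EC50 derived from response versus compound concentration.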

CFTR-S549N = target: T3, CFTR-S549N (Homo sapiens, UniProt P13569, S549N); experiment: YFP-halide influx assay for the CFTR-S549N; conditions: CFTR-S549N mutant; read-out: EC50 measured by YFP-halide influx assay for the CFTR-S549N
T3 construct: expressed in transfected cells
In short: as §1

CFTR G551D = CFTR G551D (Homo sapiens, UniProt P13569, G551D); experiment: TECC assay, FRT cells stably transfected with G551D CFTR; conditions: high expression CFTR-G551D cells, several values in a cell = repeat determinations
Protocol: 7.2.3. FRT-CFTR G551D Protocol
For G551D recordings, Fish Rat Thyroid (FRT) cells stably transfected with G551D CFTR (a low CFTR-G551D expressing cell line and a high expressing CFTR-G551D cell line from Rosalind Franklin University of medicine and science, Chicago, Ill.) are plated on Transwell supports (Costar 6.5 mm Diameter, […]). The cells are grown for 8-10 d under liquid-liquid interface conditions prior to electrophysiological readings. For electrophysiological recording, the FRT-G551D cells are mounted in the TECC heating plate for electrophysiological measurement and kept at 37° C. The epithelia are bathed in hepes buffered culturing medium without FBS on both the basolateral and apical sides. Apical amiloride is used to inhibit the endogenous ENaC currents while forkolin is applied on both apical and basolateral side to stimulate CFTR. After forskolin triggering, compounds are added on both sides to test their potential for increasing CFTR gating. Measurements are done during a 10 minute timeframe with recordings every 2 min. The increase in ISC is used as a measure for the increased CFTR activity, EC50 values can be generated by measuring impact of different concentrations of compound on ISC on the cells, for this purpose each transwell is treated with a different compound concentration. Inh-172, an inhibitor specific for CFTR, is used to test the specificity of the tested compounds.
When subjected to this protocol, the following EC50 are measured.

Chain of CFTR G551D (P13569 whole entry G551D): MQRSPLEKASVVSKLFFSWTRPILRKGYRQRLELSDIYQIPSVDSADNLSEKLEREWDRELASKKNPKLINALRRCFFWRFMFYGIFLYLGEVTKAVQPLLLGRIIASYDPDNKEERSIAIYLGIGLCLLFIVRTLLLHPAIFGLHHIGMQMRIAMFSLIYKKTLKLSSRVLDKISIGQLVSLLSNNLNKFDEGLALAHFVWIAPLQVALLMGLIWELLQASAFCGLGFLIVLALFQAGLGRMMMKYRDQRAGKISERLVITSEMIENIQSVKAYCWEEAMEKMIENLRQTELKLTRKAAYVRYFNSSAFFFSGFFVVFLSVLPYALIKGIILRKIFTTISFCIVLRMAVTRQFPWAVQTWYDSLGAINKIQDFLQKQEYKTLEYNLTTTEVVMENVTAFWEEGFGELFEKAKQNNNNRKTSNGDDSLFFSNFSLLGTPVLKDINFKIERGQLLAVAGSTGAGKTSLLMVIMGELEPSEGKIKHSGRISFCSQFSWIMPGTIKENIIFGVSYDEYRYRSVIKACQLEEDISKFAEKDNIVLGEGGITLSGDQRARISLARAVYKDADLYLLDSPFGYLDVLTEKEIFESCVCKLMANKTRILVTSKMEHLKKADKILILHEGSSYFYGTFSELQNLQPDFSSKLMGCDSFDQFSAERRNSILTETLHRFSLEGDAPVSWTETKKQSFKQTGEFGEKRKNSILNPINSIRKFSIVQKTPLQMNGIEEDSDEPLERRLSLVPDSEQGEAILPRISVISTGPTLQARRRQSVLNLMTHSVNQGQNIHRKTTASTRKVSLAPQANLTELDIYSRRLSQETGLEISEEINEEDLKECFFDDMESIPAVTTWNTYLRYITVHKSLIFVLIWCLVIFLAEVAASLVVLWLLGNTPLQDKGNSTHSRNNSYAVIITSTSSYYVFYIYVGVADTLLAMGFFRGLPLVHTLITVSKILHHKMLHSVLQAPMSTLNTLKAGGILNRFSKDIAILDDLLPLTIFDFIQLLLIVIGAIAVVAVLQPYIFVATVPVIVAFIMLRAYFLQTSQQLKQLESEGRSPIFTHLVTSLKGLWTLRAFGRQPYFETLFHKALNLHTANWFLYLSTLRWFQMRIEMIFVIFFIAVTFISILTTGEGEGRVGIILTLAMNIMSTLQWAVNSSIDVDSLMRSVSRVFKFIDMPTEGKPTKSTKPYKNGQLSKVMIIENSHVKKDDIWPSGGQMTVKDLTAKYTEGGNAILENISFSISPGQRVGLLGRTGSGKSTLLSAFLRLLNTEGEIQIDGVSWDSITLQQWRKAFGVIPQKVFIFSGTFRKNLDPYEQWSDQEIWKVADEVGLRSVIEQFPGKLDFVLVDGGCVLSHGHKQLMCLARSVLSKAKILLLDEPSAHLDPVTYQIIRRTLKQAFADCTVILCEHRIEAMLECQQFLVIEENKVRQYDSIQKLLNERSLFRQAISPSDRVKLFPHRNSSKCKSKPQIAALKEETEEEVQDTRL
T1 sequence (P13569 with tags, fused parts or gaps DEL508-508): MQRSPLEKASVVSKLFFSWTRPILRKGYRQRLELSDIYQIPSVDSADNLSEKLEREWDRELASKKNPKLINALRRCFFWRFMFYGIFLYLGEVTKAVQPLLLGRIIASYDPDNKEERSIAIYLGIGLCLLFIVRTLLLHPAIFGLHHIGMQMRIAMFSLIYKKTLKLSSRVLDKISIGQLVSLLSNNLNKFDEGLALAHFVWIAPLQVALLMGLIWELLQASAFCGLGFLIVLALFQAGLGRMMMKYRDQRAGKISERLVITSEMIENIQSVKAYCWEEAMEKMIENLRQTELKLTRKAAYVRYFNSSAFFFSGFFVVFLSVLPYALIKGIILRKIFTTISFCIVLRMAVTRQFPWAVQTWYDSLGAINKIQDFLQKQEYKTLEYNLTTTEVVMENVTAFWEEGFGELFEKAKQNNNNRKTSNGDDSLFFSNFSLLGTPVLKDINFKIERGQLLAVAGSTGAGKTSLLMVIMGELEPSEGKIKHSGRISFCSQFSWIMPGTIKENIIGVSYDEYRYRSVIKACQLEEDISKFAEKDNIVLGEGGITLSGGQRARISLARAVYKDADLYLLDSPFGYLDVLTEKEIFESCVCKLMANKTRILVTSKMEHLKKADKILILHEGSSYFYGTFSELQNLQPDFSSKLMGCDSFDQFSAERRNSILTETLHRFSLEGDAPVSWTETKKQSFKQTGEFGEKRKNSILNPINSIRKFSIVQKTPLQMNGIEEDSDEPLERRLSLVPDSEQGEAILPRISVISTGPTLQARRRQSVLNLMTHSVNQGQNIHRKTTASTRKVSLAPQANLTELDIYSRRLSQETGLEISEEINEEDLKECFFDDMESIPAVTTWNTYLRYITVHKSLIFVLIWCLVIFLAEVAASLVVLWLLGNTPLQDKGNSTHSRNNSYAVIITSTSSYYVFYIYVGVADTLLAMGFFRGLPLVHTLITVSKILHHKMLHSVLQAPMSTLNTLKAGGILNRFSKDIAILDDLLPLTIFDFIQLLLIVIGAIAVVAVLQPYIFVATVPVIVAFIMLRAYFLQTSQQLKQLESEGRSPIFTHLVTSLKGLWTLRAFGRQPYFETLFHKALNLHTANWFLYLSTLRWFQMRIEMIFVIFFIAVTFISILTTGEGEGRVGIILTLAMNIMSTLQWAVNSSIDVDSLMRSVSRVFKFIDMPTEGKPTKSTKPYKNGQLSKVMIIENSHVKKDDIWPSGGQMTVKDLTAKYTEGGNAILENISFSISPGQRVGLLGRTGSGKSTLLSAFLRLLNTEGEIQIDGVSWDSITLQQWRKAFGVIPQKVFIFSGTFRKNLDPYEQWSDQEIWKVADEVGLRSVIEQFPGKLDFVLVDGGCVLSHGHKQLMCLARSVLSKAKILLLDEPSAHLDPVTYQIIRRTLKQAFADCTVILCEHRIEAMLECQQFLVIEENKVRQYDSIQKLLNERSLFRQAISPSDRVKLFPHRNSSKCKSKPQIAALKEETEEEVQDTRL
T2 sequence (P13569 whole entry G1349D): as the sequence (P13569 whole entry G551D) above, with D551G, G1349D counted along it
T3 sequence (P13569 whole entry S549N): as the sequence (P13569 whole entry G551D) above, with S549N, D551G counted along it

Compound: CC1(C)Cc2c(sc(NC(=O)c3ccn[nH]3)c2C(N)=O)C(C)(C)O1 [Compound 2, N-(3-carbamoyl-5,5,7,7-tetramethyl-5,7-dihydro-4H-thieno[2,3-c]pyran-2-yl)-1H-pyrazole-5-carboxamide]
- EC50 (CFTR ΔF508 mutant [1]): 10 nM
- EC50 (CFTR ΔF508 mutant [2]): 3.4 nM
- EC50 (CFTR-G1349D): 63.3 nM
- EC50 (CFTR-S549N): 211 nM
- EC50 (CFTR G551D): 66.2 nM and 90.2 nM and 85 nM and 61.5 nM and 57.8 nM and 87.4 nM

Compound: CC1(C)Cc2c(sc(NC(=O)C3(O)CC3)c2C(N)=O)C(C)(C)O1 [Compound 4, 2-(1-hydroxycyclopropanecarboxamido)-5,5,7,7-tetramethyl-5,7-dihydro-4H-thieno[2,3-c]pyran-3-carboxamide]
- EC50 (CFTR ΔF508 mutant [1]): 32 nM
- EC50 (CFTR ΔF508 mutant [2]): 22.6 nM

Compound: CC1(C)Cc2c(sc(NC(=O)C3(CO)CC3)c2C(N)=O)C(C)(C)O1 [Compound 9, 2-(1-(hydroxymethyl)cyclopropanecarboxamido)-5,5,7,7-tetramethyl-5,7-dihydro-4H-thieno[2,3-c]pyran-3-carboxamide]
- EC50 (CFTR ΔF508 mutant [1]): 28 nM
- EC50 (CFTR ΔF508 mutant [2]): 15.1 nM
- EC50 (CFTR-G1349D): 578 nM
- EC50 (CFTR-S549N): 902 nM
- EC50 (CFTR G551D): 361 nM and 527 nM and 695 nM and 400 nM and 511 nM

Compound: CC1(C)Cc2c(sc(NC(=O)C(C)(C)CO)c2C(N)=O)C(C)(C)O1 [Compound 10, 2-(3-hydroxy-2,2-dimethylpropanamido)-5,5,7,7-tetramethyl-5,7-dihydro-4H-thieno[2,3-c]pyran-3-carboxamide]
- EC50 (CFTR ΔF508 mutant [1]): 121 nM
- EC50 (CFTR ΔF508 mutant [2]): 74.6 nM
